This passage reports melting point results from patent US20040092552A1, “2-Fluorobenzenesulfonyl compounds for the treatment of inflammation” (priority 2003, published 2004).

Where a name gives a salt, the structure may show the parent alone.

For orientation: melting point means the temperature of the solid-liquid transition.

Take `NS(=O)(=O)c1ccc(-n2nc(C(F)(F)F)cc2-c2ccc(F)cc2)cc1F` (as salt: trifluoroacetate) [Example 8, 2-Fluoro-4-[5-(4-fluorophenyl)-3-(trifluoromethyl)-1H-pyrazol-1-yl]benzenesulfonamide]: the melting point lay in the range of 127 to 130 °C.

Take `Cc1ccc(-c2cc(C(F)(F)F)nn2-c2ccc(S(N)(=O)=O)c(F)c2)cc1` (as salt: trifluoroacetate) [Example 4, 4-[5-(4-Methylphenyl)-3-(trifluoromethyl)-1H-pyrazol-1-yl]-2-fluorobenzenesulfonamide]: the melting point is 126 to 128 °C.

Compound `Cc1ccc(-n2nc(C(F)(F)F)cc2-c2ccc(S(C)(=O)=O)c(F)c2)cc1Cl` [Example 15, 1-(3-Chloro-4-methylphenyl)-5-[3-fluoro-4-(methylsulfonyl)phenyl]-3-(trifluoromethyl)-1H-pyrazole] gave a melting point of 144 to 145 °C.

On to `NS(=O)(=O)c1ccc(-c2cscc2-c2ccccc2)cc1F` [Example 1, 2-Fluoro-4-(4-phenyl-3-thienyl)benzenesulfonamide], for which the melting point lay in the range of 170.9 to 171 °C.

Take `CS(=O)(=O)c1ccc(-c2cscc2-c2ccccc2)cc1F` [Example 2, 3-[3-Fluoro-4-(methylsulfonyl)phenyl]-4-phenylthiophene]: the melting point lay in the range of 140 to 141 °C.

Turning to `CS(=O)(=O)c1ccc(-c2cc(C(F)(F)F)nn2-c2ccc(OC(F)(F)F)cc2)cc1F` [Example 14, 5-[3-Fluoro-4-(methylsulfonyl)phenyl]-3-(trifluoromethyl)-1-[4-(trifluoromethoxy)phenyl]-1H-pyrazole], the melting point was in the range of 110 to 112 °C.

`NS(=O)(=O)c1ccc(-n2nc(C(F)(F)F)cc2-c2ccc(Cl)cc2)cc1F` (as salt: trifluoroacetate) [Example 5, 4-[5-(4-Chlorophenyl)-3-trifluoromethyl-1H-pyrazol-1-yl]-2-fluorobenizenesulfonamide] registered a melting point of 140 to 141 °C.

`CS(=O)(=O)c1ccc(-c2cc(C(F)(F)F)nn2-c2ccc(F)cc2)cc1F` [Example 11, 5-[3-Fluoro-4-(methylsulfonyl)phenyl]-1-(4-fluorophenyl)-3-(trifluoromethyl)-1H-pyrazole] came in with a melting point of 228 to 229 °C.

Compound `CS(=O)(=O)c1ccc(-c2cc(C(F)(F)F)nn2C2CCCCC2)cc1F` [Example 12, 1-Cyclohexyl-5-[3-fluoro-4-(methylsulfonyl)phenyl]-3-(trifluoromethyl)-1H-pyrazole] had a melting point of 228 to 229 °C.

On to `Cc1ccc(-n2nc(C(F)F)cc2-c2ccc(S(C)(=O)=O)c(F)c2)cc1Cl` (as salt: trifluoroacetate) [Example 20, 1-(3-Chloro-4-methylphenyl)-3-(difluoromethyl)-5-[3-fluoro-4-(methylsulfonyl)phenyl]-1H-pyrazole], for which the melting point was in the range of 146 to 147 °C.

Take `CS(=O)(=O)c1ccc(-c2cc(C(F)F)nn2C2CCCCC2)cc1F` (as salt: trifluoroacetate) [Example 19, 1-Cyclohexyl-3-(difluoromethyl)-5-[3-fluoro-4-(methylsulfonyl)phenyl]-1H-pyrazole]: the melting point was 138 to 139 °C.

Compound `CS(=O)(=O)c1ccc(-c2cc(C(F)(F)F)nn2-c2ccc(C#N)cc2)cc1F` [Example 16, 4-[5-[3-Fluoro-4-(methylsulfonyl)phenyl]-3-(trifluoromethyl)-1H-pyrazol-1-yl]benzonitrile] showed a melting point of 152 to 153 °C.

In the case of `CS(=O)(=O)c1ccc(C2=C(c3ccccc3)C(=O)OC2)cc1F` [Example 24, 4-[3-Fluoro-4-(methylsulfonyl)phenyl]-3-phenyl-2(5H)-furanone], the melting point was 161 to 162 °C.

As for `CS(=O)(=O)c1ccc(-c2cc(C(F)F)nn2-c2ccc(F)cc2)cc1F` (as salt: trifluoroacetate) [Example 18, 3-(Difluoromethyl)-5-[3-fluoro-4-(methylsulfonyl)phenyl]-1-(4-fluorophenyl)-1H-pyrazole], the melting point was in the range of 201 to 202 °C.

The compound `Cc1cccc(-n2nc(C(F)(F)F)cc2-c2ccc(S(C)(=O)=O)c(F)c2)c1` [Example 17, 5-[3-Fluoro-4-(methylsulfonyl)phenyl]-1-(3-methylphenyl)-3-(trifluoromethyl)-1H-pyrazole] gave a melting point of 129 to 130 °C.

`COc1ccc(-c2cc(C(F)(F)F)nn2-c2ccc(S(N)(=O)=O)c(F)c2)cc1F` (as salt: trifluoroacetate) [Example 6, 4-[5-(3-Fluoro-4-methoxy)-3-trifluoromethyl-1H-pyrazol-1-yl]-2 fluorobenzenesulfonamide] displayed a melting point of 124 to 126 °C.

`Cc1onc(-c2ccc(F)cc2)c1-c1ccc(S(N)(=O)=O)c(F)c1` [Example 22, 2-Fluoro-4-[3-(4-fluorophenyl)-5-methyl-4-isoxazolyl]benzenesulfonamide]: the melting point fell in the range of 176 to 177 °C.

In the case of `CS(=O)(=O)c1ccc(-c2cc(C(F)F)nn2-c2cccc(C(F)(F)F)c2)cc1F` (as salt: trifluoroacetate) [Example 21, 3-(Difluoromethyl)-5-[3-fluoro-4-(methylsulfonyl)-phenyl]-1-[3-(trifluoromethyl)-phenyl]-1H-pyrazole], the melting point fell in the range of 110 to 111 °C.

As for `COc1ccc(-c2cc(C(F)F)nn2-c2ccc(S(N)(=O)=O)c(F)c2)cc1F` [Example 10, 4-[3-(Difluoromethyl)-5-(3-fluoro-4-methoxyphenyl)-1H-pyrazol-1-yl]-2-fluorobenzenesulfonamide], the melting point fell in the range of 167 to 169 °C.

For `COc1ccccc1-c1cc(C(F)(F)F)nn1-c1ccc(S(N)(=O)=O)c(F)c1` (as salt: trifluoroacetate) [Example 9, 2-Fluoro-4-[5-(2-methoxyphenyl)-3-(trifluoromethyl)-1H-pyrazol-1-yl]benzenesulfonamide], the melting point fell in the range of 159 to 160 °C.

`Cc1ccc(-c2cc(C(F)F)nn2-c2ccc(S(N)(=O)=O)c(F)c2)cc1Cl` [Example 3, 4-[5-(3-chloro-4-methylphenyl)-3-(difluoromethyl)-1H-pyrazol-1-yl]-2-fluorobenzenesulfonamide]: the melting point lay within 160 to 161 °C.
